ChEMBL document CHEMBL2021816, “Synthesis and acrosin inhibitory activity of methyl 5-substituted-1H-benzo[d]imidazol-2-yl carbamate derivatives” (Bioorg Med Chem Lett, 2012)

Biological target: Acrosin (Homo sapiens, UniProt P10323)
Assay: Inhibition of acrosin in human spermatozoa assessed as effect on amidase activity after 3 hrs incubation by spectrophotometry

Sequence of Acrosin (P10323 20-42 limits assumed): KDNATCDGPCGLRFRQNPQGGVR
Sequence of Acrosin (P10323 43-343 limits assumed): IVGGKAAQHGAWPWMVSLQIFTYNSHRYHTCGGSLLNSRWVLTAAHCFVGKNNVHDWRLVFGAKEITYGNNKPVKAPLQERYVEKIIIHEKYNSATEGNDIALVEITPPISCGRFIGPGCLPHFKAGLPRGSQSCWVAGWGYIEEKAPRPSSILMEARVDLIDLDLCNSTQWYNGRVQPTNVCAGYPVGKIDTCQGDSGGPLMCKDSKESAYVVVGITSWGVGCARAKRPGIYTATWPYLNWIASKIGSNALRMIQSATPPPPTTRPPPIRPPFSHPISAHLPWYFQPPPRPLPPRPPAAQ

SMILES	IC50 [µM]
COC(=O)Nc1nc2ccc(S(=O)(=O)NCc3ccc(F)cc3)cc2[nH]1	2400
COC(=O)Nc1nc2ccc(S(=O)(=O)NCc3ccc(Cl)cc3Cl)cc2[nH]1	1270
COC(=O)Nc1nc2ccc(S(=O)(=O)NCc3ccc(OC)cc3)cc2[nH]1	3290
COC(=O)Nc1nc2ccc(S(=O)(=O)NCc3cccc(C)c3)cc2[nH]1	5060
COC(=O)Nc1nc2ccc(S(=O)(=O)NCc3ccc(C)cc3)cc2[nH]1	3180
COC(=O)Nc1nc2ccc(S(=O)(=O)NCc3ccccc3)cc2[nH]1	1030
COC(=O)Nc1nc2ccc(S(=O)(=O)NCc3ccc(C(F)(F)F)cc3)cc2[nH]1	10700
COC(=O)Nc1nc2ccc(S(=O)(=O)NCc3ccc(F)c(F)c3)cc2[nH]1	1590
COC(=O)Nc1nc2ccc(S(=O)(=O)NCc3cccc(F)c3)cc2[nH]1	1810
COC(=O)Nc1nc2ccc(S(=O)(=O)NCc3ccccc3OC)cc2[nH]1	8420
COC(=O)Nc1nc2ccc(S(=O)(=O)NCc3cccc(OC)c3)cc2[nH]1	7500
COC(=O)Nc1nc2ccc(S(=O)(=O)NC(C)C)cc2[nH]1	470
CCCCNS(=O)(=O)c1ccc2nc(NC(=O)OC)[nH]c2c1	1770
CCCCCCNS(=O)(=O)c1ccc2nc(NC(=O)OC)[nH]c2c1	1800
COC(=O)Nc1nc2ccc(S(=O)(=O)N(CCC(C)C)CCC(C)C)cc2[nH]1	63
COC(=O)Nc1nc2ccc(S(=O)(=O)N(C)Cc3ccccc3)cc2[nH]1	1250

Second part, the molecule after the results:

IC50 [µM]	SMILES
8860	COC(=O)Nc1nc2ccc(S(=O)(=O)Nc3cc(C)ccc3C)cc2[nH]1
310	COC(=O)Nc1nc2ccc(S(=O)(=O)NCc3ccccc3F)cc2[nH]1
1640	COC(=O)Nc1nc2ccc(S(=O)(=O)NCc3ccc(Br)cc3)cc2[nH]1
5750	COC(=O)Nc1nc2ccc(S(=O)(=O)NCc3ccccc3Cl)cc2[nH]1
7520	COC(=O)Nc1nc2ccc(S(=O)(=O)NCc3ccc(Cl)cc3)cc2[nH]1
4020	COC(=O)Nc1nc2ccc(S(=O)(=O)NCc3ccc(Cl)c(Cl)c3)cc2[nH]1
1550	COC(=O)Nc1nc2ccc(S(=O)(=O)NCc3ccc(F)cc3F)cc2[nH]1
11500	COC(=O)Nc1nc2ccc(S(=O)(=O)NCc3ccc(OC)c(OC)c3)cc2[nH]1
1700	O=Cc1cc(-c2ccc(Cl)cc2Cl)on1
